Reference: US9481676B2, “Azepino[4,5-B]indoles and methods of use” (Medivation Technologies, Inc., priority 2008, dated 2016)

How the values were obtained:
[1] = molecular target: T1, human recombinant serotonin (5-Hydroxytryptamine) 5-HT6 receptor (Homo sapiens, UniProt P50406); test: Serotonin 5-HT6 radioligand binding ([3H]LSD); settings: compound at 1 μM; read-out: Serotonin (1 μM) 5-HT6, percent inhibition of specific binding
T1 construct: expressed in transfected cells; host or cells: human HeLa cells
Summary of the method: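 Human recombinant 5-HT6 receptor from HeLa cells incubated with 1.5 nM [3H]LSD for 120 min at 37° C in 50 mM Tris-HCl pH 7.4, 150 mM NaCl, 2 mM ascorbic acid, 0.001% BSA. Nonspecific binding defined with 5 μM serotonin; bound ligand counted after filtration.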

[2] = molecular target: T2, human recombinant adrenergic α1D receptor (Homo sapiens, UniProt P25100); test: Adrenergic alpha1D radioligand binding ([3H]Prozosin); settings: compound at 1 μM; read-out: Adrenergic (1 μM) α1D, percent inhibition of specific binding
T2 construct: expressed in transfected cells; host or cells: HEK-293 cells
T2 sequence (P25100 1-572): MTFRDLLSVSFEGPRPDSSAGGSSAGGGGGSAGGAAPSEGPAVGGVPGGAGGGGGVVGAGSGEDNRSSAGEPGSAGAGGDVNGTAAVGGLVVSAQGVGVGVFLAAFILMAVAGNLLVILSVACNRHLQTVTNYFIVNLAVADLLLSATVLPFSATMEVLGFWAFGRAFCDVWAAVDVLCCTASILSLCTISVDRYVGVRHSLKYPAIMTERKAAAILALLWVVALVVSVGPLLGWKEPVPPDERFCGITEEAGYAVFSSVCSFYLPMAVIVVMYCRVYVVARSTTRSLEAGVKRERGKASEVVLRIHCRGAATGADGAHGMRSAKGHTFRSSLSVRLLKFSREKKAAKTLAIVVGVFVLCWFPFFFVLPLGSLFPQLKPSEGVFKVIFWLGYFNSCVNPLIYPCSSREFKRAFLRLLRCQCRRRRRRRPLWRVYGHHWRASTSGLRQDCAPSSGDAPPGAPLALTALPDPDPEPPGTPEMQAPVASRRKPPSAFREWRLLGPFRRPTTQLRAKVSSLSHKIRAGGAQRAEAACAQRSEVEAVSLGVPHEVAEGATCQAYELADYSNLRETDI
Protocol: To evaluate in radioligand binding assays the activity of compounds of the invention, human recombinant adrenergic α1D receptor expressed in human embryonic kidney (HEK-293) cells (Kenny, B. A. et al. Br. J. Pharmacol. 115(6):981, 1995) in a 50 mM Tris-HCl buffer, pH 7.4, was used. Compounds of invention were incubated with 0.6 nM [^3H]Prozosin for 60 min. at 25° C. Non-specific binding was estimated in the presence of 10 μM phentolamine. Receptor proteins were filtered and washed, the filters were then counted to determine [^3H]Prozosin specifically bound. Compounds were screened at 1 μM or lower, using 1% DMSO as vehicle. Biochemical assay results are presented as the percent inhibition of specific binding in Table 5.

[3] = molecular target: T3, human recombinant serotonin (5-Hydroxytryptamine) 5-HT2A receptor (Homo sapiens, UniProt P28223); test: Serotonin 5-HT2A radioligand binding ([3H]Ketanserin); settings: compound at 1 μM; read-out: Serotonin (1 μM) 5-HT2A, percent inhibition of specific binding
T3 construct: expressed in transfected cells; host or cells: CHO-K1 cells
Summary of the method: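 Percent inhibition of specific [3H]ketanserin (0.5 nM) binding, filtration read-out, with compounds at ≤1 μM (1% DMSO vehicle). Receptor source: recombinant human 5-HT2A in CHO-K1 cells, 50 mM Tris-HCl pH 7.4, 60 min, 25 °C; 1 μM mianserin gives nonspecific binding.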

[4] = molecular target: T4, human recombinant histamine H1 receptor (Homo sapiens, UniProt P35367); test: Histamine H1 radioligand binding ([3H]Pyrilamine); settings: compound at 1 μM; read-out: Histamine Binding (1 μM) H1, percent inhibition of specific binding
T4 construct: expressed in transfected cells; host or cells: CHO cells
Summary of the method: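 Membranes from CHO cells expressing the receptor were incubated with compound and 1.2 nM [3H]pyrilamine for 180 min at 25 °C in 50 mM Tris-HCl pH 7.4 with MgCl2, NaCl and sucrose; 1 μM pyrilamine defined non-specific binding. Filter-bound radioactivity was counted.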

T1 sequence (P50406 whole entry): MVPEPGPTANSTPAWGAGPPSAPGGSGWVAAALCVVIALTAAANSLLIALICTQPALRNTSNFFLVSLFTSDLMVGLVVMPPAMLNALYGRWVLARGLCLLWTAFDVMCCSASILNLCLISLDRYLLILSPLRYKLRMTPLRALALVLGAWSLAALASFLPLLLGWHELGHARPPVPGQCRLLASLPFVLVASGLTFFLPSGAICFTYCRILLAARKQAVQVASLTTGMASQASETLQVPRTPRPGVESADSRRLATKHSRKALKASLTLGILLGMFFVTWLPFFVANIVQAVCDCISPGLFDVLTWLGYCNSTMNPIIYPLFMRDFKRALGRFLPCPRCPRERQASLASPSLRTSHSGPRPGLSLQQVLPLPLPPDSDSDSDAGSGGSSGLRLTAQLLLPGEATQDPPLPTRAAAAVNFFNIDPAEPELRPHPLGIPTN
T3 sequence (P28223 whole entry): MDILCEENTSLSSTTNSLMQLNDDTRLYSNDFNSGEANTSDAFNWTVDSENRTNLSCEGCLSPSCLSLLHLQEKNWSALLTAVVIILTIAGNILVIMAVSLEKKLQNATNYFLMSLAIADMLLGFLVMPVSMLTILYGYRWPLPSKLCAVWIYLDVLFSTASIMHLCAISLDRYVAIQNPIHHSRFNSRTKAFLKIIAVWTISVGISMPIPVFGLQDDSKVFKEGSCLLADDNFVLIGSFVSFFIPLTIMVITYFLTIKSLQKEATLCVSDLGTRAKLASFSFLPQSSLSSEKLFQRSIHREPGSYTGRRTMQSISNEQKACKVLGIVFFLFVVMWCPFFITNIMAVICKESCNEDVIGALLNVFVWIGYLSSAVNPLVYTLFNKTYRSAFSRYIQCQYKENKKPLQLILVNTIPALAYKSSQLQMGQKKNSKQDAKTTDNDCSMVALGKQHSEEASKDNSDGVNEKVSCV
T4 sequence (P35367 whole entry): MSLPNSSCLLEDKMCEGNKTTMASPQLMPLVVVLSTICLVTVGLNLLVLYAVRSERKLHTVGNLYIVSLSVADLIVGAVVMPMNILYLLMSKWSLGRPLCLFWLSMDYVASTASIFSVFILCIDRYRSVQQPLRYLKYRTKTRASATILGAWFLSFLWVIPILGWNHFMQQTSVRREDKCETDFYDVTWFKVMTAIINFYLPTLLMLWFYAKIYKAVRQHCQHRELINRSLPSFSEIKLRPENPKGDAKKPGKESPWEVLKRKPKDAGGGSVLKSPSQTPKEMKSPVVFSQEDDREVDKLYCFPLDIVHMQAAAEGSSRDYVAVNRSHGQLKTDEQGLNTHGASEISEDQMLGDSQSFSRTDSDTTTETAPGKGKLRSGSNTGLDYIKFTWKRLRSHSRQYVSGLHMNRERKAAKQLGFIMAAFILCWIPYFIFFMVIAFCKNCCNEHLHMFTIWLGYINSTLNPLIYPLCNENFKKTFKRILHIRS

Structure (SMILES) | inhibition at 1 µM [1] | inhibition at 1 µM [2] | inhibition at 1 µM [3] | inhibition at 1 µM [4]
Cc1ccc2c(c1)c1c(n2CC(O)c2ccccc2F)CCN(C)CC1 (stereo not drawn) [Compound No. 41, 1-(2-fluorophenyl)-2-(2,3,4,5-tetrahydro-3,9-dimethylazepino[4,5-b]indol-6(1H)-yl)ethanol] | 101% | 75% | 99% | 100%
CC(C)NC(=O)Cn1c2c(c3cc(Cl)ccc31)CCN(C)CC2 [Compound No. 31, 2-(9-chloro-2,3,4,5-tetrahydro-3-methylazepino[4,5-b]indol-6(1H)-yl)-N-isopropylacetamide] | 2% | 6% | 43% | 14%
Cc1ccc(CCn2c3c(c4cc(Cl)ccc42)CCN(C)CC3)cc1 [Compound No. 46, 9-chloro-3-methyl-6-(4-methylphenethyl)-1,2,3,4,5,6-hexahydroazepino[4,5-b]indole] | 98% | 88% | 100% | 108%
Cc1ccc2c(c1)c1c(n2CC(O)c2ccc(Cl)cc2)CCN(C)CC1 (stereo not drawn) [Compound No. 17, 1-(4-chlorophenyl)-2-(2,3,4,5-tetrahydro-3,9-dimethylazepino[4,5-b]indol-6(1H)-yl)ethanol] | 80% | 95% | 102% | 101%
CN1CCc2c(n(CCc3ccc(C(=O)O)nc3)c3ccc(Cl)cc23)CC1 [Compound No. 21, 5-(2-(9-chloro-2,3,4,5-tetrahydro-3-methylazepino[4,5-b]indol-6(1H)-yl)ethyl)pyridine-2-carboxylic acid] | 30% | 17% | 8% | 96%
Cc1ccc2c(c1)c1c(n2CC(O)c2ccccc2)CCN(C)CC1 (stereo not drawn) [Compound No. 25, 2-(2,3,4,5-tetrahydro-3,9-dimethylazepino[4,5-b]indol-6(1H)-yl)-1-phenylethanol] | 93% | 96% | 97% | 91%
C/C(=C\n1c2c(c3cc(Cl)ccc31)CCN(C)CC2)c1ccc(Cl)cc1Cl [Compound No. 239, (E)-9-chloro-6-(2-(2,4-dichlorophenyl)prop-1-enyl)-3-methyl-1,2,3,4,5,6-hexahydroazepino[4,5-b]indole] | 59% | 28% | 102% | 91%
Cc1ccc2c(c1)c1c(n2CC(O)c2ccc(F)cc2)CCN(C)CC1 (stereo not drawn) [Compound No. 52, 1-(4-fluorophenyl)-2-(2,3,4,5-tetrahydro-3,9-dimethylazepino[4,5-b]indol-6(1H)-yl)ethanol] | 84% | 91% | 97% | 96%
CN1CCc2c(n(CC(O)c3ccccc3)c3ccc(Cl)cc23)CC1 (stereo not drawn) [Compound No. 24, 2-(9-chloro-2,3,4,5-tetrahydro-3-methylazepino[4,5-b]indol-6(1H)-yl)-1-phenylethanol] | 99% | 85% | 98% | 100%
Cc1ccc2c(c1)c1c(n2CC(C)(O)c2ccc(F)cc2)CCN(C)CC1 (stereo not drawn) [Compound No. 14, 2-(4-fluorophenyl)-1-(2,3,4,5-tetrahydro-3,9-dimethylazepino[4,5-b]indol-6(1H)-yl)propan-2-ol] | 93% | 75% | 101% | 98%
CN1CCc2c(n(/C=C/c3ccc(F)cc3)c3ccc(Cl)cc23)CC1 [Compound No. 234, (E)-9-chloro-6-(4-fluorostyryl)-3-methyl-1,2,3,4,5,6-hexahydroazepino[4,5-b]indole] | 103% | 97% | 101% | 99%
CN1CCc2c(n(CCc3ccccc3F)c3ccc(Cl)cc23)CC1 [Compound No. 61, 6-(2-fluorophenethyl)-9-chloro-1,2,3,4,5,6-hexahydro-3-methylazepino[4,5-b]indole] | 5% | -5% | 43% | 97%
C/C(=C\n1c2c(c3cc(C)ccc31)CCN(C)CC2)c1ccc(Cl)cc1Cl [Compound No. 238, (E)-6-(2-(2,4-dichlorophenyl)prop-1-enyl)-3,9-dimethyl-1,2,3,4,5,6-hexahydroazepino[4,5-b]indole] | 86% | 30% | 103% | 98%
Cc1ccc2c(c1)c1c(n2CC(=O)N2CCCC2)CCN(C)CC1 [Compound No. 45, 2-(2,3,4,5-tetrahydro-3,9-dimethylazepino[4,5-b]indol-6(1H)-yl)-1-(pyrrolidin-1-yl)ethanone] | 2% | 1% | 22% | 13%
Cc1ccc2c(c1)c1c(n2C(=O)Cc2ccc(F)cc2)CCN(C)CC1 [Compound No. 285, 1-(3,9-dimethyl-2,3,4,5-tetrahydroazepino[4,5-b]indol-6(1H)-yl)-2-(4-fluorophenyl) ethanone] | 94% | 89% | 100% | 68%
Cc1ccc2c(c1)c1c(n2CCc2ccc(C(F)(F)F)nc2)CCN(C)CC1 [Compound No. 20, 6-(2-(6-(trifluoromethyl)pyridin-3-yl)ethyl)-1,2,3,4,5,6-hexahydro-3,9-dimethylazepino[4,5-b]indole] | 46% | 91% | 95% | 99%
Cc1ccc2c(c1)c1c(n2CCc2ccc(Cl)cc2)CCN(C)CC1 [Compound No. 28, 6-(4-chlorophenethyl)-1,2,3,4,5,6-hexahydro-3,9-dimethylazepino[4,5-b]indole] | 95% | 94% | 100% | 103%
COc1ccc(C(O)Cn2c3c(c4cc(C)ccc42)CCN(C)CC3)cc1 (stereo not drawn) [Compound No. 48, 2-(2,3,4,5-tetrahydro-3,9-dimethylazepino[4,5-b]indol-6(1H)-yl)-1-(4-methoxyphenyl) ethanol] | 73% | 95% | 97% | 98%
CN1CCc2c(n(CC(=O)N3CCOCC3)c3ccc(Cl)cc23)CC1 [Compound No. 60, 2-(9-chloro-2,3,4,5-tetrahydro-3-methylazepino[4,5-b]indol-6(1H)-yl)-1-morpholinoethanone] | 3% | -1% | -7% | 2%
Cc1ccc2c(c1)c1c(n2CC(=O)N2CCOCC2)CCN(C)CC1 [Compound No. 38, 2-(2,3,4,5-tetrahydro-3,9-dimethylazepino[4,5-b]indol-6(1H)-yl)-1-morpholinoethanone] | 41% | 38% | 96% | 83%
Cc1ccc2c(c1)c1c(n2CC(O)c2cccnc2)CCN(C)CC1 (stereo not drawn) [Compound No. 19, 2-(2,3,4,5-tetrahydro-3,9-dimethylazepino[4,5-b]indol-6(1H)-yl)-1-(pyridin-3-yl)ethanol] | 42% | 54% | 80% | 99%
